Source: article PMC3984044 (ChemMedChem, 2013)
Where a name gives a salt, the structure may show the parent alone. Read-outs that look alike come from different tables or passages of the source.

Experiments:
[1] = system: PrP^Sc levels in ScN2a-cl3 cells; assay: cells; type: cell-based, mouse
in vivo = details: mouse, po, 10 mg/kg
in vitro = details: mouse, microsomes
[2] = mouse, in vivo; cited from earlier work
[3] = mouse, microsomes
[4] = Mus musculus, read-out: EC50 ± SEM(nM)

## Cc1cccc(Nc2nc(-c3ccc(-c4ccccc4)cc3)cs2)n1 [Compound 1, (4-Biphenyl-4-yl-thiazol-2-yl)-(6-methyl-pyridin-2-yl)-amine]
[1]; [4]
  EC50: 1290 ± 122 nM
In vivo
  Cmax: 2450 ± 740 nM
In vitro
  half-life: > 60 min
[2]
  oral bioavailability (%F): ~40%

## Cc1cccc(Nc2nc(-c3ccc(-c4ccncc4)cc3)cs2)n1 [Compound 12, (6-Methyl-pyridin-2-yl)-[4-(4-pyridin-4-yl-phenyl)-thiazol-2-yl]-amine]
[1]
  fold greater antiprion potency than 1: > 10 fold
[1]; [4]
  EC50: 87 ± 43 nM
In vitro
  half-life: > 60 min

## Cc1cccc(Nc2nc(-c3ccc(-c4cc[n+]([O-])cc4)cc3)cs2)n1 [Compound 13, 4-(4-(2-((6-Methylpyridin-2-yl)amino)thiazol-4-yl)phenyl)pyridine 1-oxide]
[1]; [4]
  EC50: 559 ± 120 nM

## Cc1cccc(Nc2nc(-c3ccc(-c4ccncc4C)cc3)cs2)n1 [Compound 14, (6-Methyl-pyridin-2-yl)-{4-[4-(3-methyl-pyridin-4-yl)-phenyl]-thiazol-2-yl}-amine trifluoro acetic acid salt]
[1]; [4]
  EC50: 400 ± 61 nM

## Cc1cccc(Nc2nc(-c3ccc(-c4cccnc4)cc3)cs2)n1 [Compound 15, (6-Methyl-pyridin-2-yl)-[4-(4-pyridin-3-yl-phenyl)-thiazol-2-yl]-amine]
[1]
  fold greater antiprion potency than 1: > 10 fold
[1]; [4]
  EC50: 68 ± 13 nM
In vitro
  half-life: > 60 min

## Cc1cccc(Nc2nc(-c3ccc(-c4ccc[n+]([O-])c4)cc3)cs2)n1 [Compound 16, 3-(4-(2-((6-Methylpyridin-2-yl)amino)thiazol-4-yl)phenyl)pyridine 1-oxide]
[1]; [4]
  EC50: 203 ± 10 nM
In vivo
  Cmax: 900 ± 240 nM
In vivo; AUC (μM *h) Brain
  AUC: 3.85 ± 0.52 µM·h
In vivo; AUC (μM *h) Plasma
  AUC: 11.5 ± 0.71 µM·h
In vitro
  half-life: > 60 min

## Cc1cccc(Nc2nc(-c3ccc(-c4cccnc4C)cc3)cs2)n1 [Compound 17, (6-Methyl-pyridin-2-yl)-{4-[4-(2-methyl-pyridin-3-yl)-phenyl]-thiazol-2-yl}-amine trifluoro acetic acid salt]
[1]; [4]
  EC50: 618 ± 54 nM

## Cc1cccc(Nc2nc(-c3ccc(-c4ccnn4C)cc3)cs2)n1 [Compound 18, {4-[4-(2-Methyl-2H-pyrazol-3-yl)-phenyl]-thiazol-2-yl}-(6-methyl-pyridin-2-yl)-amine]
[1]; [4]
  EC50: 89 ± 35 nM

## Cc1cccc(Nc2nc(-c3ccc(-c4c(C)noc4C)cc3)cs2)n1 [Compound 19, {4-[4-(3,5-Dimethyl-isoxazol-4-yl)-phenyl]-thiazol-2-yl}-(6-methyl-pyridin-2-yl)-amine]
[1]; [4]
  EC50: 2130 ± 226 nM

## Cc1cccc(Nc2nc(-c3ccc(N4CCN(C)CC4)cc3)cs2)n1 [Compound 20, {4-[4-(4-Methyl-piperazin-1-yl)-phenyl]-thiazol-2-yl}-(6-methyl-pyridin-2-yl)-amine]
[1]; [4]
  EC50: 840 ± 132 nM

## Cc1cccc(Nc2nc(-c3ccc(N4CCOCC4)cc3)cs2)n1 [Compound 21, (6-Methyl-pyridin-2-yl)-[4-(4-morpholin-4-yl-phenyl)-thiazol-2-yl]-amine]
[1]; [4]
  EC50: 51 ± 7 nM

## COCCOc1cccc(Nc2nc(-c3ccc(-c4ccccc4)cc3)cs2)n1 [Compound 22, 4-([1,1′-Biphenyl]-4-yl)-N-(6-(2-methoxyethoxy)pyridin-2-yl)thiazol-2-amine]
[1]
  antiprion activity (in words): inactive
[1]; [4]
  EC50: > 10000 nM

## CN(C)c1cccc(Nc2nc(-c3ccc(-c4ccccc4)cc3)cs2)n1 [Compound 23, N2-(4-([1,1′-biphenyl]-4-yl)thiazol-2-yl)-N6,N6-dimethylpyridine-2,6-diamine]
[1]; [4]
  EC50: 699 ± 87 nM

## CN1CCN(c2cccc(Nc3nc(-c4ccc(-c5ccccc5)cc4)cs3)n2)CC1 [Compound 24, 4-([1,1′-Biphenyl]-4-yl)-N-(6-(4-methylpiperazin-1-yl)pyridin-2-yl)thiazol-2-amine]
[1]; [4]
  EC50: 1180 ± 206 nM

## COc1ccc(-c2ccc(-c3csc(Nc4cccc(C)n4)n3)cc2)cn1 [Compound 25, {4-[4-(6-Methoxy-pyridin-3-yl)-phenyl]-thiazol-2-yl}-(6-methyl-pyridin-2-yl)-amine]
[1]; [4]
  EC50: 140 ± 23 nM

## COCCOc1cc(-c2ccc(-c3csc(Nc4cccc(C)n4)n3)cc2)ccn1 [Compound 26, 4-(4-(2-(2-methoxyethoxy)pyridin-4-yl)phenyl)-N-(6-methylpyridin-2-yl)thiazol-2-amine]
[1]; [4]
  EC50: 153 ± 36 nM
In vivo
  Cmax: 330 ± 160 nM
In vivo; AUC (μM *h) Brain
  AUC: 1.04 ± 0.13 µM·h

## COCCOc1ccc(-c2ccc(-c3csc(Nc4cccc(C)n4)n3)cc2)cn1 [Compound 27, 4-(4-(6-(2-methoxyethoxy)pyridin-3-yl)phenyl)-N-(6-methylpyridin-2-yl)thiazol-2-amine]
[1]; [4]
  EC50: 137 ± 13 nM
In vivo
  Cmax: 970 ± 220 nM
In vivo; AUC (μM *h) Brain
  AUC: 3.27 ± 0.44 µM·h
In vivo; AUC (μM *h) Plasma
  AUC: 6.75 ± 0.45 µM·h
In vitro
  half-life: > 60 min

## Cc1cccc(Nc2nc(-c3ccc(-c4ccnc(OC(C)C)c4)cc3)cs2)n1 [Compound 28, 4-(4-(2-isopropoxypyridin-4-yl)phenyl)-N-(6-methylpyridin-2-yl)thiazol-2-amine]
[1]; [4]
  EC50: 2840 ± 22 nM

## Cc1cccc(Nc2nc(-c3ccc(-c4ccc(OC(C)C)nc4)cc3)cs2)n1 [Compound 29, 4-(4-(6-Isopropoxypyridin-3-yl)phenyl)-N-(6-methylpyridin-2-yl)thiazol-2-amine]
[1]; [4]
  EC50: 5860 ± 327 nM

## Cc1cccc(Nc2nc(-c3ccc(-c4ccnc(N(C)C)c4)cc3)cs2)n1 [Compound 30, 4-(4-(2-(dimethylamino)pyridin-4-yl)phenyl)-N-(6-methylpyridin-2-yl)thiazol-2-amine]
[1]; [4]
  EC50: 123 ± 35 nM

## Cc1cccc(Nc2nc(-c3ccc(-c4ccc(N(C)C)nc4)cc3)cs2)n1 [Compound 31, 4-(4-(6-(Dimethylamino)pyridin-3-yl)phenyl)-N-(6-methylpyridin-2-yl)thiazol-2-amine]
[1]; [4]
  EC50: 69 ± 21 nM

## Cc1cccc(Nc2nc(-c3ccc(-c4ccnc(N5CCN(C)CC5)c4)cc3)cs2)n1 [Compound 32, 4-(4-(2-(4-methylpiperazin-1-yl)pyridin-4-yl)phenyl)-N-(6-methylpyridin-2-yl)thiazol-2-amine]
[1]; [4]
  EC50: 759 ± 374 nM
In vivo
  Cmax: 1170 ± 190 nM
In vivo; AUC (μM *h) Brain
  AUC: 5.22 ± 0.1 µM·h
In vivo; AUC (μM *h) Plasma
  AUC: 1.57 ± 0.15 µM·h
In vitro
  half-life: 6.8 min

## Cc1cccc(Nc2nc(-c3ccc(-c4ccc(N5CCN(C)CC5)nc4)cc3)cs2)n1 [Compound 33, 4-(4-(6-(4-Methylpiperazin-1-yl)pyridin-3-yl)phenyl)-N-(6-methylpyridin-2-yl)thiazol-2-amine]
[1]; [4]
  EC50: 96 ± 31 nM

## O=C(Nc1nc(-c2ccc(-c3ccccc3)cc2)cs1)C1CC1 [Compound 34, cyclopropanecarboxylic acid (4-biphenyl-thiazol-2-yl)-amide]
[1]; read-out: EC50 ± SEM
  EC50: 248 ± 67 nM
[3]
  T1/2: >60 min

## O=C(Nc1nc(-c2ccc(-c3ccncc3)cc2)cs1)C1CC1 [Compound 39, Cyclopropanecarboxylic acid [4-(4-pyridin-4-yl-phenyl)-thiazol-2-yl]-amide trifluoroacetic acid salt]
[1]; [4]
  EC50: 173 ± 16 nM

## Cc1ncccc1-c1ccc(-c2csc(NC(=O)C3CC3)n2)cc1 [Compound 40, Cyclopropanecarboxylic acid {4-[4-(2-methyl-pyridin-3-yl)-phenyl]-thiazol-2-yl}-amide]
[1]; [4]
  EC50: > 10000 nM

## CN(C)c1ccc(-c2ccc(-c3csc(NC(=O)C4CC4)n3)cc2)cn1 [Compound 41, Cyclopropanecarboxylic acid {4-[4-(6-dimethylamino-pyridin-3-yl)-phenyl]-thiazol-2-yl}-amide]
[1]; [4]
  EC50: 109 ± 12 nM

## Cn1nccc1-c1ccc(-c2csc(NC(=O)C3CC3)n2)cc1 [Compound 42, Cyclopropanecarboxylic acid {4-[4-(2-methyl-2H-pyrazol-3-yl)-phenyl]-thiazol-2-yl}-amide]
[1]; [4]
  EC50: > 10000 nM

## Cc1noc(C)c1-c1ccc(-c2csc(NC(=O)C3CC3)n2)cc1 [Compound 43, Cyclopropanecarboxylic acid {4-[4-(3,5-dimethyl-isoxazol-4-yl)-phenyl]-thiazol-2-yl}-amide]
[1]; [4]
  EC50: > 10000 nM

## COCCOc1cc(-c2ccc(-c3csc(NC(=O)C4CC4)n3)cc2)ccn1 [Compound 44, N-(4-(4-(2-(2-methoxyethoxy)pyridin-4-yl)phenyl)thiazol-2-yl)cyclopropanecarboxamide]
[1]; [4]
  EC50: 1320 ± 233 nM

## CN1CCN(c2cc(-c3ccc(-c4csc(NC(=O)C5CC5)n4)cc3)ccn2)CC1 [Compound 45, N-(4-(4-(2-(4-methylpiperazin-1-yl)pyridin-4-yl)phenyl)thiazol-2-yl)cyclopropanecarboxamide]
[1]; [4]
  EC50: 682 ± 100 nM
In vivo
  Cmax: 250 ± 110 nM
In vivo; AUC (μM *h) Brain
  AUC: 1.29 ± 0.02 µM·h
In vivo; AUC (μM *h) Plasma
  AUC: 0.76 ± 0.01 µM·h
In vitro
  half-life: 4.4 min

## COCCOc1ccc(-c2ccc(-c3csc(NC(=O)C4CC4)n3)cc2)cn1 [Compound 46, N-(4-(4-(6-(2-methoxyethoxy)pyridin-3-yl)phenyl)thiazol-2-yl)cyclopropanecarboxamide]
[1]; [4]
  EC50: 118 ± 11 nM
In vivo
  Cmax: 150 ± 10 nM
In vivo; AUC (μM *h) Brain
  AUC: 0.32 µM·h
In vivo; AUC (μM *h) Plasma
  AUC: 0.26 ± 0.01 µM·h
In vitro
  half-life: 55 min

## CN1CCN(c2ccc(-c3ccc(-c4csc(NC(=O)C5CC5)n4)cc3)cn2)CC1 [Compound 47, N-(4-(4-(6-(4-methylpiperazin-1-yl)pyridin-3-yl)pheyl)thiazol-2-yl)cyclopropanecarboxamide]
[1]; read-out: EC50 ± SEM
  EC50: 70 ± 23 nM
[3]
  T1/2: 2.5 min
